From patent US20150238445A1 (CATHOLIC UNIVERSITY INDUSTRY ACADEMIC COOPERATION FOUNDATION, priority 2012, published 2015)

What was measured:
pathogenic B cell = assay: IgG production by LPS-stimulated B cell; type: cell-based, mouse; settings: metformin 1 μM, 2 μM, and 5 μM; LPS 1 μg/ml
Description: Then, the level of IgG produced by B cell of the mouse was measured by the same manner as described in Example 1.

lupus mouse model = assay: Spleen and liver observation (size, GC follicles, inflammatory cell infiltration) in lupus mouse model; type: in vivo
Description: The size of those spleen and liver was measured by the naked eye, and the size and the number of GC follicle (Germinal Center follicle) were also observed.
The infiltration of inflammatory cells around the blood vessels of liver tissue was also observed.

pathogenic B cells = assay: FACS and staining of spleen cells for pathogenic B cells, GC and THF in lupus mouse model; type: in vivo
Text: Then, spleen cells were separated therefrom and B cell was observed. Particularly, the representative pathogenic B cells, B220−CD138+ long lived plasma B cell and GL7+B220+ germinal center B cell, were observed. For the observation, the spleen cells separated from each group were stained with CD138 and B220 and the […] were stained with GL7 and B220, followed by FACS to examine the expression of each cell.

undifferentiated B cell = assay: Differentiation of undifferentiated B cell into regulatory B cell (Breg); type: cell-based; settings: undifferentiated B cell treated with metformin
Text: As a result, the numbers of both IL-10+ B cell and Foxp3+ B cell were all increased.

Th17 cell [1] = assay: Th17 cytokine ELISA and electron microscopy with autophagy activity inhibitor in T cells of lupus mouse model; type: cell-based
Description: Thus, the present inventors investigated whether or not the activation of autophagy could be directly involved in the suppression of Th17 cell by using an autophagy activity inhibitor. Particularly, T cells were separated from the spleen cells of the lupus mouse model. […] Upon completion of the culture, IL-17, IL-21, and TNF-α cytokines in the culture solution were analyzed by ELISA. Some of those cultured cells were observed under electron microscope to directly observe the activated autophagy therein.

TFH cell = TFH cell expression in spleen tissue, confocal staining, lupus animal model; type: in vivo, mouse; settings: intraperitoneal injection 3 times a week; 5 weeks after the administration
Description: Particularly, CD4-PerCP, B220-APC, GL-7-FITC, and IOCS-PE fluorescence staining was performed. Then, TFH cells expressing GL-7+ICOS+ in CD4 T cells were examined under fluorescent microscope.

autophagy = assay: Autophagy molecules and IL-17/Foxp3 in T cells under Th17 differentiation, Western blotting and confocal staining; type: cell-based; settings: 1 mM metformin, 24 hours
Description: (§1) Particularly, T cells were separated from the spleen cells of the lupus animal model. […] To analyze signal molecules in the cultured cells, protein was extracted from each condition of the cells. Western blotting was performed with the extracted protein. The protein separated by size was conjugated with each antibody against ATG5, p62, and 3-actin. The activity of each molecule was evaluated. Some of the cultured cells were conjugated with DAPI, IL-17, and Foxp3 fluorescent antibodies, whose expressions were examined under fluorescent microscope after confocal staining.

Th17 cell [2] = assay: Th17 differentiation of CD4+ T cells from lupus mouse spleen: FACS, real-time PCR, IL-17 ELISA; type: cell-based; settings: 3 days
Description: Particularly, T cells were separated from the spleen of the lupus mouse model by using CD4+ microbeads. […] Upon completion of the culture, some of the cultured cells were stained with CD4-PerCP and ILo-17 PE, followed by FACS. RNA was separate from the remaining cells, from which Th17 cell related gene was amplified by real-time PCR. The expression of IL-17 in the culture solution was analyzed by ELISA (antigen-antibody examination).

B cell = B cell differentiation stages after LPS and metformin for 3 days, FACS; type: cell-based
Description: FACS was performed to observe any changes of the cell in each stage of B cell differentiation.

mTOR/STAT3 = mTOR/STAT3 signalling in T cells from lupus animal model spleen, Western blotting and confocal staining; type: cell-based
Description: as §1, with “p-AMPK, AMPK, p-mTOR, mTOR, p-STAT3 705, p-STAST3 727, STAT3, p-STAT5, STAT5,” for “ATG5, p62,”, “β-actin.” for “3-actin.”, “p-AMPK, AMPK, p-mTOR, p-STAT3 705, p-STAT3 727,” for “DAPI, IL-17,”, “p-p53” for “Foxp3”, “staining” for “staining.”
In addition, nucleus and cytoplasm were separated in order to examine the expression of NrF2 in the nucleus and cytoplasm. Electrophoresis was performed and then Nrf2, tubulin, and β-actin were analyzed by Western blotting.

lupus animal model = assay: Serum lupus-specific dsDNA and IgG by ELISA in the lupus animal model; type: in vivo, mouse; settings: oral 100 mg/kg every day
Description: At this time, the lupus animal model not treated with metformin was used as the control. […] The analysis of the treatment effect was performed as follows. […] Serum was separated from the blood extracted above. The levels of lupus-specific dsDNA (Sigma, cat no. D8515) and IgG (Sigma) in the separated serum were measured by ELISA. Particularly, 96-well plate was coated with dsDNA or anti-mouse IgG, to which the serum separated from the mouse blood was loaded, followed by reaction. Then, […] was added thereto, followed by reaction. Color development was induced by TMB system and the […] was measured.

[3] = tested on: regulatory T cell and Th17 cell; assay: Regulatory T cell and Th17 cell activity in lupus animal model; type: in vivo; settings: vs control group
[4] = oral 100 mg/kg every day for 3 weeks, spleen cells, FACS, vs control
[5] = staining of spleen cells, vs lupus mouse model not treated
[6] = real-time PCR, Th17 differentiation
[7] = 1 mM metformin with IL-6 or IL-2 (10 ng/ml), 24 hours
[8] = vs lupus group not treated with metformin

CN(C)C(=N)NC(=N)N [metformin]
IgG production in B cell (pathogenic B cell): reduced by metformin dose-dependently
size and number of GC follicle (lupus mouse model; spleen, vs group not treated with metformin): significantly decreased
size of spleen (lupus mouse model; vs group not treated with metformin): significantly reduced
infiltration of inflammatory cells around the blood vessels of liver tissue (lupus mouse model; vs lupus mouse group not treated with metformin): hardly observe
B220-CD138+ long lived plasma B cell (pathogenic B cells; [4]): significantly reduced
GL7+B220+ germinal center B cell (pathogenic B cells; [4]): significantly reduced
number of follicular B helper T cells (THF) (pathogenic B cells; [5]): also reduced
size of GC (pathogenic B cells; [5]): significantly reduced
number of Foxp3+ B cell (undifferentiated B cell): increased
number of IL-10+ B cell (undifferentiated B cell): increased
suppressed IL-17 expression when the autophagy inhibitor was co-treated (Th17 cell [1]; 1 mM metformin plus 10 μM bafilomycin or methyladenine, 72 hours, ELISA): increased
expression of IL-17 (Th17 cell [1]; 1 mM metformin, Th17 differentiation, 72 hours, ELISA): suppressed
intracellular activation of autophagy (Th17 cell [1]; electron microscope): directly confirmed
expression of TFH cell expressing ICOS in the spleen tissue (TFH cell): suppressed
ATG5 (autophagy activating molecule) (autophagy; Western blotting): activate
p62 (autophagy activating molecule) (autophagy; Western blotting): activate
expression of Foxp3 (autophagy; confocal staining): increase
expression of IL-17 (autophagy; confocal staining): suppress
expression of IL-17 (Th17 cell [2]; Th17 differentiation condition, metformin 0.1, 1, and 5 mM, FACS and ELISA): regulated by metformin
expression of Foxp3 gene (Th17 cell [2]; [6]): increased
expression of Th-17 related gene Ahr (Th17 cell [2]; [6]): suppression
expression of Th-17 related gene IL-17 (Th17 cell [2]; [6]): suppression
expression of Th-17 related gene IL-21 (Th17 cell [2]; [6]): suppression
expression of Th-17 related gene RUNX1 (Th17 cell [2]; [6]): suppression
expression of Th-17 related gene TNF-α (Th17 cell [2]; [6]): suppression
germinal center B cell (B cell): suppressed by metformin dose-dependently
pre-long lived plasma cell B220+CD138 low cell (B cell): suppressed by metformin dose-dependently
pro/preB cell in the stage of early B cell differentiation (B cell): suppressed by metformin dose-dependently
AMPK activity (mTOR/STAT3; [7]): activated
mTOR/STAT3 activity (mTOR/STAT3; [7]): suppression
expression of NrF2 (mTOR/STAT3; 1 mM metformin, nucleus and cytoplasm, Western blotting): increased
level of IgG in serum (lupus animal model; [8]): significantly reduced
level of lupus-specific dsDNA in serum (lupus animal model; [8]): significantly reduced
level of lupus-specific dsDNA in serum compared with normal mouse group (lupus animal model; vs normal (wild type) mouse group): rather lower than that of the normal mouse group
activity of Th17 [3]: decreased
activity of regulatory T cell [3]: increased
